pKd: −log10 of the molar value.
Biological target: T1, TroK (Burkholderia plantarii, UniProt A0A0B6RRK0)
T1 construct: gene BGL_1c34780
Assay: SPR (Biacore T200, multiple cycle kinetics)
Assay type: binding
Conditions: TroK immobilised on CM7 chip by amine coupling; 10 mM PBS, pH 7.4, 150 mM NaCl, DMSO; free ATT
Description: SPR (Biacore T200, multiple cycle kinetics) on TroK | thiazole could directly bind to the purified TroK in the transmembrane region

T1 sequence (A0A0B6RRK0 entry or part of it): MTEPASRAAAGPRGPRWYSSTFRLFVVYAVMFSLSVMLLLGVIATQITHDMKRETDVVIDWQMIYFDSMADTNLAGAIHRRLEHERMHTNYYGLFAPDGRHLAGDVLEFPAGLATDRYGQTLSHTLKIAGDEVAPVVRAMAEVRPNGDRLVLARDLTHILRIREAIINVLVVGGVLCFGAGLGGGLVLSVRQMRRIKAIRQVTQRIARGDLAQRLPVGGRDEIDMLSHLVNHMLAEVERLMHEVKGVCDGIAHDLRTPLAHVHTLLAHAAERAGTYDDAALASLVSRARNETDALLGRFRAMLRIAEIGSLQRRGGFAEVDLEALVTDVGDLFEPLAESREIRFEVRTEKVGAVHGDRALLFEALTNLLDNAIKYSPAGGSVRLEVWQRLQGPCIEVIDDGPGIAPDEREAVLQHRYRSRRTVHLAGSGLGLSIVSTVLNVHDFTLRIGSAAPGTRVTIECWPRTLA

Nc1nnc(S)s1 [ATT, 5-Amino-1,3,4-thiadiazole-2-thiol] gave a pKd of 6.14.

Reference: PMC11197535, “Reprogramming of phytopathogen transcriptome by a non-bactericidal pesticide residue alleviates its virulence in rice” (Fundamental Research, 2022)
